Values of other authors, collected in patent publication US6751290B2, “Radiographic assessment of tissue after exposure to a compound” (Veritas Pharmaceuticals, Inc., priority 1998, dated 2004).

Details: experimental logP values, commonly used non-ionic radiographic contrast agents (Hansch et al. 1995)

In order of falling logP:
1. CC(=O)Nc1c(I)c(C(=O)N[C@H]2C(O)O[C@H](CO)[C@@H](O)[C@@H]2O)c(I)c(N(C)C(C)=O)c1I (stereo partly drawn) [Metrizamide]  −1.86
2. COCC(=O)Nc1c(I)c(C(=O)NCC(O)CO)c(I)c(C(=O)N(C)CC(O)CO)c1I (stereo not drawn) [Iopromide]  −2.05
3. CC(=O)N(CC(O)CO)c1c(I)c(C(=O)NCC(O)CO)c(I)c(C(=O)NCC(O)CO)c1I (stereo not drawn) [Iohexol]  −3.05
